The values below come from US20240246977A1, “DEGRADATION OF BRUTON'S TYROSINE KINASE (BTK) BY CONJUGATION OF BTK INHIBITORS WITH E3 LIGASE LIGAND AND METHOD OF USE” (BeiGene Switzerland GmbH, priority 2021, published 2024).

One test concerns the target BTK (Homo sapiens, UniProt Q06187). In words: BTK cell degradation in TMD-8 cells, HTRF assay. In kind it is cell-based. The arrangement: endogenous in cells; host or cells: TMD-8 cells. To be noted: 6 h treatment, IC50 (DC50) of BTK degradation. A digest of the protocol:
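TMD-8 cells treated 6 h with 8-dose series (6-fold dilutions, 0.2% DMSO final), then lysed and BTK quantified by HTRF (337/665/620 nm) after overnight antibody incubation at room temperature. Degradation normalized to DMSO high and low controls; DC50 and Dmax from four-parameter fit.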
Background: TR-FRET usually uses a lanthanide donor and a delayed reading to cut background.

For another test, the system named is HEK-293 cells. In words: HEK-293 cytotoxicity detection (CellTiter-Glo). The format is cell-based. To be noted: Homo sapiens, 72 h, 72 h incubation, CellTiter-Glo luminescence, read-out: HEK293. A digest of the protocol: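 HEK-293 cells exposed 72 h to 8 compounds doses (4-fold dilutions, top stock 5 mM at 500×) in 0.2% DMSO. Viability by CellTiter-Glo luminescence; inhibition normalised to DMSO high control and low control, IC50 from four-parameter curve fit.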
A general note: Cellular ATP, detected with luciferase, serves as a proxy for viable cell number.

Some results are limits rather than exact numbers.

Sequence of BTK (Q06187 whole entry): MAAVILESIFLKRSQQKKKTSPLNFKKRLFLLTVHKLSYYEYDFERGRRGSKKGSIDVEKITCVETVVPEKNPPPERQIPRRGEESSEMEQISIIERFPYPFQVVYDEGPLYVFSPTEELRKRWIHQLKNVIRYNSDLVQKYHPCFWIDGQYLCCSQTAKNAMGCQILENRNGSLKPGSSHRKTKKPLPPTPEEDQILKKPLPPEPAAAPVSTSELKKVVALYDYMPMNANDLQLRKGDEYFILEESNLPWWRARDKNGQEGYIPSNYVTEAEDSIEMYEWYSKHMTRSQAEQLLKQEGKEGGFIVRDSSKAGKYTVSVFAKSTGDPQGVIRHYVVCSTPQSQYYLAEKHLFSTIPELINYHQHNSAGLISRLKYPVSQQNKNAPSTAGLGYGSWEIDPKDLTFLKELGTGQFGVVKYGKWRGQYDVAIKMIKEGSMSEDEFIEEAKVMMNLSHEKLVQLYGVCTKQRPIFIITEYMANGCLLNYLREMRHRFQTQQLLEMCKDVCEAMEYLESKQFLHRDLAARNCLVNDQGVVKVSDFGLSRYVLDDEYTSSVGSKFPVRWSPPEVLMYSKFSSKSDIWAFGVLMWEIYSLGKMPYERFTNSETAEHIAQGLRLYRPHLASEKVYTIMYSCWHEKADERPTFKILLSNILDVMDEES

A word on the DC50: it is the concentration giving 50% degradation. On to `Cc1cccc(NC(=O)c2ccc(-c3nn4c(c3C(N)=O)Nc3ccc(N5CCN(C6CN(C7CN(c8ccc9c(c8)C(=O)N(C8CCC(=O)NC8=O)C9=O)C7)C6)CC5)cc3CC4)c(F)c2C)n1` (centres unmarked) [Example B57, 7-(4-(1′-(2-(2,6-dioxopiperidin-3-yl)-1,3-dioxoisoindolin-5-yl)-[1,3′-biazetidin]-3-yl)piperazin-1-yl)-2-(2-fluoro-3-methyl-4-((6-methylpyridin-2-yl)carbamoyl)phenyl)-9,10-dihydro-4H-benzo[d]pyrazolo[1,5-a][1,3]diazepine-3-carboxamide], for which it took 0.526 nM to reach half-maximal degradation at BTK (DC50). Also, the IC50 with HEK-293 cells is > 10000 nM.

In the case of `Cc1cccc(NC(=O)c2ccc(-c3nn4c(c3C(N)=O)Nc3ccc(N5CCN(CC6CCN(c7ccc8c(c7)CN(C7CCC(=O)NC7=O)C8=O)CC6)CC5)cc3CC4)c(F)c2C)n1` (centres unmarked) [Example B58, 7-(4-((1-(2-(2,6-dioxopiperidin-3-yl)-1-oxoisoindolin-5-yl)piperidin-4-yl)methyl)piperazin-1-yl)-2-(2-fluoro-3-methyl-4-((6-methylpyridin-2-yl)carbamoyl)phenyl)-9,10-dihydro-4H-benzo[d]pyrazolo[1,5-a][1,3]diazepine-3-carboxamide], the DC50 at BTK came to 2.01 nM. Further, the IC50 in the test with HEK-293 cells was > 10000 nM.

Regarding `Cc1cccc(NC(=O)c2ccc(-c3nn4c(c3C(N)=O)Nc3ccc(N5CCN(CC6CN(c7ccc(N8CCC(=O)NC8=O)cc7)C6)CC5)cc3CC4)c(F)c2C)n1` [Example B59, 7-(4-((1-(4-(2,4-dioxotetrahydropyrimidin-1(2H)-yl)phenyl)azetidin-3-yl)methyl)piperazin-1-yl)-2-(2-fluoro-3-methyl-4-((6-methylpyridin-2-yl)carbamoyl)phenyl)-9,10-dihydro-4H-benzo[d]pyrazolo[1,5-a][1,3]diazepine-3-carboxamide], at BTK, the 50% degradation concentration (DC50) was found to be 1.47 nM. Also, the IC50 in the test on HEK-293 cells was > 10000 nM.

On BTK, `Cc1cccc(NC(=O)c2ccc(-c3nn4c(c3C(N)=O)Nc3ccc(N5CCN(Cc6ccc7c(c6)C(C)(C)C(=O)N7C6CCC(=O)NC6=O)CC5)cc3CC4)c(F)c2C)n1` (centres unmarked) [Example B60, 7-(4-((1-(2,6-dioxopiperidin-3-yl)-3,3-dimethyl-2-oxoindolin-5-yl)methyl)piperazin-1-yl)-2-(2-fluoro-3-methyl-4-((6-methylpyridin-2-yl)carbamoyl)phenyl)-9,10-dihydro-4H-benzo[d]pyrazolo[1,5-a][1,3]diazepine-3-carboxamide] gave a 50% degradation concentration (DC50) of 4.97 nM. In the test with HEK-293 cells, the IC50 is > 10000 nM.

With `Cc1cccc(NC(=O)c2ccc(-c3nn4c(c3C(N)=O)Nc3ccc(N5CCN(CCc6cccc7c6oc(=O)n7C6CCC(=O)NC6=O)CC5)cc3CC4)c(F)c2C)n1` (centres unmarked) [Example B61, 7-(4-(2-(3-(2,6-dioxopiperidin-3-yl)-2-oxo-2,3-dihydrobenzo[d]oxazol-7-yl)ethyl)piperazin-1-yl)-2-(2-fluoro-3-methyl-4-((6-methylpyridin-2-yl)carbamoyl)phenyl)-9,10-dihydro-4H-benzo[d]pyrazolo[1,5-a][1,3]diazepine-3-carboxamide], on BTK, the DC50 turned out to be 1.09 nM. Also, in the test with HEK-293 cells, the IC50 was > 10000 nM.

The molecule `Cc1cccc(NC(=O)c2ccc(-c3nn4c(c3C(N)=O)Nc3ccc(N5CCN(CCc6cc(F)c(C7CCC(=O)NC7=O)c(F)c6)CC5)cc3CC4)c(F)c2C)n1` (centres unmarked) [Example B62, 7-(4-(4-(2,6-dioxopiperidin-3-yl)-3,5-difluorophenethyl)piperazin-1-yl)-2-(2-fluoro-3-methyl-4-((6-methylpyridin-2-yl)carbamoyl)phenyl)-9,10-dihydro-4H-benzo[d]pyrazolo[1,5-a] [1,3]diazepine-3-carboxamide] yielded a DC50 at BTK of 1.7 nM. Further, in the test on HEK-293 cells, the IC50 is > 10000 nM.

Molecule `Cc1cccc(NC(=O)c2ccc(-c3nn4c(c3C(N)=O)Nc3ccc(N5CCN(CCc6cc(F)c([C@H]7CCC(=O)NC7=O)c(F)c6)CC5)cc3CC4)c(F)c2C)n1` [Example B63, (R)-7-(4-(4-(2,6-dioxopiperidin-3-yl)-3,5-difluorophenethyl)piperazin-1-yl)-2-(2-fluoro-3-methyl-4-((6-methylpyridin-2-yl)carbamoyl)phenyl)-9,10-dihydro-4H-benzo[d]pyrazolo[1,5-a][1,3]diazepine-3-carboxamide] showed a DC50 at BTK of 2.32 nM. The IC50 with HEK-293 cells was > 10000 nM.

On BTK, `Cc1cccc(NC(=O)c2ccc(-c3nn4c(c3C(N)=O)Nc3ccc(N5CCN(C6CC(c7ccc(N8CCC(=O)NC8=O)cc7)C6)CC5)cc3CC4)c(F)c2C)n1` (centres unmarked) [Example B64, 7-(4-(3-(4-(2,4-dioxotetrahydropyrimidin-1(2H)-yl)phenyl)cyclobutyl)piperazin-1-yl)-2-(2-fluoro-3-methyl-4-((6-methylpyridin-2-yl)carbamoyl)phenyl)-9,10-dihydro-4H-benzo[d]pyrazolo[1,5-a][1,3]diazepine-3-carboxamide] returned a DC50 of 4.85 nM. The IC50 with HEK-293 cells is > 10000 nM.

With `Cc1cccc(NC(=O)c2ccc(-c3nn4c(c3C(N)=O)Nc3ccc(N5CCN(C6CN(C7CN(c8ccc(C9CCC(=O)NC9=O)cc8)C7)C6)CC5)cc3CC4)c(F)c2C)n1` (centres unmarked) [Example B65, 7-(4-(1′-(4-(2,6-dioxopiperidin-3-yl)phenyl)-[1,3′-biazetidin]-3-yl)piperazin-1-yl)-2-(2-fluoro-3-methyl-4-((6-methylpyridin-2-yl)carbamoyl)phenyl)-9,10-dihydro-4H-benzo[d]pyrazol[1,5-a][1,3]diazepine-carboxamide], it took 1.78 nM to reach half-maximal degradation on BTK (DC50). Besides, the IC50 in the test on HEK-293 cells is 98.8 nM.

Take `Cc1cccc(NC(=O)c2ccc(-c3nn4c(c3C(N)=O)Nc3ccc(N5CCN(C6CN(c7ccc(N8CCC(=O)NC8=O)cc7)C6)CC5)cc3CC4)c(F)c2C)n1` [Example B66, 7-(4-(1-(4-(2,4-dioxotetrahydropyrimidin-1(2H)-yl)phenyl)azetidin-3-yl)piperazin-1-yl)-2-(2-fluoro-3-methyl-4-((6-methylpyridin-2-yl)carbamoyl)phenyl)-9,10-dihydro-4H-benzo[d]pyrazolo[1,5-a][1,3]diazepine-3-carboxamide]: the DC50 on BTK stood at 1.35 nM. The IC50 in the test with HEK-293 cells was > 10000 nM.

The molecule `Cc1cccc(NC(=O)c2ccc(-c3nn4c(c3C(N)=O)Nc3ccc(N5CCN(C6CC(c7ccc([C@H]8CCC(=O)NC8=O)cc7)C6)CC5)cc3CC4)c(F)c2C)n1` (stereo partly drawn) [Example B67, (R)-7-(4-(3-(4-(2,6-dioxopiperidin-3-yl)phenyl)cyclobutyl)piperazin-1-yl)-2-(2-fluoro-3-methyl-4-((6-methylpyridin-2-yl)carbamoyl)phenyl)-9,10-dihydro-4H-benzo[d]pyrazolo[1,5-a][1,3]diazepine-3-carboxamide] came in with a DC50 at BTK of 0.622 nM. Further, in the test with HEK-293 cells, the IC50 turned out to be 96.8 nM.

With `Cc1cccc(NC(=O)c2ccc(-c3nn4c(c3C(N)=O)Nc3ccc(N5CCN(C6CC(c7ccc([C@@H]8CCC(=O)NC8=O)cc7)C6)CC5)cc3CC4)c(F)c2C)n1` (stereo partly drawn) [Example B68, (S)-7-(4-(3-(4-(2,6-dioxopiperidin-3-yl)phenyl)cyclobutyl)piperazin-1-yl)-2-(2-fluoro-3-methyl-4-((6-methylpyridin-2-yl)carbamoyl)phenyl)-9,10-dihydro-4H-benzo[d]pyrazolo[1,5-a][1,3]diazepine-3-carboxamide], it took 2.56 nM to reach half-maximal degradation at BTK (DC50). In the test on HEK-293 cells, the IC50 turned out to be 105 nM.

On to `Cc1cccc(NC(=O)c2ccc(-c3nn4c(c3C(N)=O)Nc3ccc(N5CCN(C6CC(c7ccc(N[C@@H]8CCC(=O)NC8=O)cc7)C6)CC5)cc3CC4)c(F)c2C)n1` (stereo partly drawn) [Example B71, (R)-7-(4-(3-(4-((2,6-dioxopiperidin-3-yl)amino)phenyl)cyclobutyl)piperazin-1-yl)-2-(2-fluoro-3-methyl-4-((6-methylpyridin-2-yl)carbamoyl)phenyl)-9,10-dihydro-4H-benzo[d]pyrazolo[1,5-a][1,3]diazepine-3-carboxamide], for which, on BTK, it took 7.45 nM to reach half-maximal degradation (DC50). Besides, in the test on HEK-293 cells, the IC50 was > 10000 nM.

For the molecule `Cc1cccc(NC(=O)c2ccc(-c3nn4c(c3C(N)=O)Nc3ccc(N5CCN(C6CC(c7ccc(N[C@H]8CCC(=O)NC8=O)cc7)C6)CC5)cc3CC4)c(F)c2C)n1` (stereo partly drawn) [Example B72, (S)-7-(4-(3-(4-((2,6-dioxopiperidin-3-yl)amino)phenyl)cyclobutyl)piperazin-1-yl)-2-(2-fluoro-3-methyl-4-((6-methylpyridin-2-yl)carbamoyl)phenyl)-9,10-dihydro-4H-benzo[d]pyrazolo[1,5-a][1,3]diazepine-3-carboxamide], it took 6.23 nM to reach half-maximal degradation on BTK (DC50). Besides, the IC50 in the test on HEK-293 cells was > 10000 nM.

As to `Cc1cccc(NC(=O)c2ccc(-c3nn4c(c3C(N)=O)Nc3ccc(N5CCN(C(=O)C6CCN(c7ccc(N8CCC(=O)NC8=O)cc7)CC6)CC5)cc3CC4)c(F)c2C)n1` [Example B73, 7-(4-(1-(4-(2,4-dioxotetrahydropyrimidin-1(2H)-yl)phenyl)piperidine-4-carbonyl)piperazin-1-yl)-2-(2-fluoro-3-methyl-4-((6-methylpyridin-2-yl)carbamoyl)phenyl)-9,10-dihydro-4H-benzo[d]pyrazolo[1,5-a][1,3]diazepine-3-carboxamide], on BTK, the DC50 was found to be 2.18 nM. Also, the IC50 in the test with HEK-293 cells is > 10000 nM.

For `Cc1cccc(NC(=O)c2ccc(-c3nn4c(c3C(N)=O)Nc3ccc(N5CCN(C[C@H]6CCN(c7ccc(N8CCC(=O)NC8=O)cc7)C6)CC5)cc3CC4)c(F)c2C)n1` [Example B74, (R)-7-(4-((1-(4-(2,4-dioxotetrahydropyrimidin-1(2H)-yl)phenyl)pyrrolidin-3-yl)methyl)piperazin-1-yl)-2-(2-fluoro-3-methyl-4-((6-methylpyridin-2-yl)carbamoyl)phenyl)-9,10-dihydro-4H-benzo[d]pyrazolo[1,5-a][1,3]diazepine-3-carboxamide], half-maximal degradation at BTK (DC50) was put at 7.15 nM. Further, the IC50 with HEK-293 cells is > 10000 nM.
